Numbers after ± are expanded uncertainties.
Assay: molar heat capacity at constant pressure
Conditions: 101.33 kPa, Crystal, Small (less than 1 g) adiabatic calorimetry

Q: What does the source list for C[C@H]1C[C@@H]2[C@H]([C@@H](O)C[C@@]3(C)[C@H]2CC[C@]3(O)C(=O)CO)[C@@]2(C)C=CC(=O)C=C12 [Methylprednisolone]?
A: molar heat capacity at constant pressure (5 K): 0.981 ± 0.052 J/K/mol; molar heat capacity at constant pressure (6.33 K): 2.001 ± 0.091 J/K/mol; molar heat capacity at constant pressure (6.49 K): 2.141 ± 0.096 J/K/mol; molar heat capacity at constant pressure (6.65 K): 2.26 ± 0.1 J/K/mol; molar heat capacity at constant pressure (6.78 K): 2.357 ± 0.1 J/K/mol; molar heat capacity at constant pressure (6.95 K): 2.495 ± 0.11 J/K/mol; molar heat capacity at constant pressure (7.1 K): 2.55 ± 0.11 J/K/mol; molar heat capacity at constant pressure (7.24 K): 2.74 ± 0.12 J/K/mol; molar heat capacity at constant pressure (7.49 K): 3.021 ± 0.13 J/K/mol; molar heat capacity at constant pressure (7.82 K): 3.43 ± 0.15 J/K/mol; molar heat capacity at constant pressure (8.13 K): 3.81 ± 0.17 J/K/mol; molar heat capacity at constant pressure (8.44 K): 4.275 ± 0.18 J/K/mol; molar heat capacity at constant pressure (8.75 K): 4.579 ± 0.2 J/K/mol; molar heat capacity at constant pressure (9.05 K): 4.913 ± 0.21 J/K/mol; molar heat capacity at constant pressure (9.36 K): 5.269 ± 0.23 J/K/mol; molar heat capacity at constant pressure (9.69 K): 5.653 ± 0.24 J/K/mol; molar heat capacity at constant pressure (10 K): 6.06 ± 0.26 J/K/mol; molar heat capacity at constant pressure (10.01 K): 6.058 ± 0.26 J/K/mol; molar heat capacity at constant pressure (10.33 K): 6.528 ± 0.28 J/K/mol; molar heat capacity at constant pressure (10.66 K): 6.921 ± 0.29 J/K/mol; molar heat capacity at constant pressure (11 K): 7.373 ± 0.31 J/K/mol; molar heat capacity at constant pressure (11.38 K): 7.86 ± 0.33 J/K/mol; molar heat capacity at constant pressure (11.77 K): 8.373 ± 0.35 J/K/mol; molar heat capacity at constant pressure (12.06 K): 8.762 ± 0.37 J/K/mol; molar heat capacity at constant pressure (12.88 K): 9.96 ± 0.42 J/K/mol; molar heat capacity at constant pressure (14.16 K): 11.96 ± 0.5 J/K/mol; molar heat capacity at constant pressure (15 K): 13.31 ± 0.55 J/K/mol; molar heat capacity at constant pressure (15.44 K): 14.15 ± 0.59 J/K/mol; molar heat capacity at constant pressure (16.74 K): 16.54 ± 0.68 J/K/mol; molar heat capacity at constant pressure (18.07 K): 19.18 ± 0.79 J/K/mol; molar heat capacity at constant pressure (19.43 K): 21.92 ± 0.9 J/K/mol; molar heat capacity at constant pressure (20 K): 22.8 ± 0.94 J/K/mol; molar heat capacity at constant pressure (22.43 K): 28.16 ± 0.37 J/K/mol; molar heat capacity at constant pressure (25 K): 33.3 ± 0.42 J/K/mol; molar heat capacity at constant pressure (25.22 K): 33.67 ± 0.42 J/K/mol; molar heat capacity at constant pressure (28.44 K): 39.96 ± 0.48 J/K/mol; molar heat capacity at constant pressure (30 K): 42.63 ± 0.48 J/K/mol; molar heat capacity at constant pressure (31.97 K): 46.03 ± 0.52 J/K/mol; molar heat capacity at constant pressure (35 K): 51.54 ± 0.58 J/K/mol; molar heat capacity at constant pressure (35.53 K): 52.34 ± 0.58 J/K/mol; molar heat capacity at constant pressure (39.09 K): 58.93 ± 0.65 J/K/mol; molar heat capacity at constant pressure (40 K): 60.39 ± 0.67 J/K/mol; molar heat capacity at constant pressure (42.67 K): 65.35 ± 0.4 J/K/mol; molar heat capacity at constant pressure (45 K): 69.3 ± 0.42 J/K/mol; molar heat capacity at constant pressure (46.26 K): 71.33 ± 0.43 J/K/mol; molar heat capacity at constant pressure (49.86 K): 77.8 ± 0.47 J/K/mol; molar heat capacity at constant pressure (50 K): 78.27 ± 0.47 J/K/mol; molar heat capacity at constant pressure (53.45 K): 84.8 ± 0.5 J/K/mol; molar heat capacity at constant pressure (57.05 K): 91.01 ± 0.54 J/K/mol; molar heat capacity at constant pressure (60 K): 96.39 ± 0.57 J/K/mol; molar heat capacity at constant pressure (60.67 K): 97.6 ± 0.57 J/K/mol; molar heat capacity at constant pressure (64.3 K): 104 ± 0.6 J/K/mol; molar heat capacity at constant pressure (67.91 K): 110.8 ± 0.6 J/K/mol; molar heat capacity at constant pressure (70 K): 114.2 ± 0.7 J/K/mol; molar heat capacity at constant pressure (71.53 K): 116.8 ± 0.7 J/K/mol; molar heat capacity at constant pressure (75.17 K): 122.4 ± 0.7 J/K/mol; molar heat capacity at constant pressure (78.82 K): 129.7 ± 0.7 J/K/mol; molar heat capacity at constant pressure (80 K): 131.5 ± 0.8 J/K/mol; molar heat capacity at constant pressure (81.9 K): 134.6 ± 0.8 J/K/mol; molar heat capacity at constant pressure (82.48 K): 136 ± 0.8 J/K/mol; molar heat capacity at constant pressure (86.1 K): 142.8 ± 0.8 J/K/mol; molar heat capacity at constant pressure (86.12 K): 142.4 ± 0.8 J/K/mol; molar heat capacity at constant pressure (89.32 K): 147.8 ± 0.8 J/K/mol; molar heat capacity at constant pressure (90 K): 149.3 ± 0.8 J/K/mol; molar heat capacity at constant pressure (92.91 K): 154.1 ± 0.8 J/K/mol; molar heat capacity at constant pressure (96.5 K): 159.9 ± 0.9 J/K/mol; molar heat capacity at constant pressure (100 K): 165.9 ± 0.9 J/K/mol; molar heat capacity at constant pressure (100.08 K): 165.8 ± 0.9 J/K/mol; molar heat capacity at constant pressure (103.66 K): 171.9 ± 0.9 J/K/mol; molar heat capacity at constant pressure (107.23 K): 178 ± 1 J/K/mol; molar heat capacity at constant pressure (110 K): 182.1 ± 1 J/K/mol; molar heat capacity at constant pressure (110.81 K): 183.4 ± 1 J/K/mol; molar heat capacity at constant pressure (114.37 K): 188.6 ± 1 J/K/mol; molar heat capacity at constant pressure (117.93 K): 195.4 ± 1 J/K/mol; molar heat capacity at constant pressure (120 K): 198.1 ± 1.1 J/K/mol; molar heat capacity at constant pressure (121.48 K): 200.9 ± 1.1 J/K/mol; molar heat capacity at constant pressure (125.04 K): 206.7 ± 1.1 J/K/mol; molar heat capacity at constant pressure (128.59 K): 212 ± 1.1 J/K/mol; molar heat capacity at constant pressure (130 K): 213.9 ± 1.1 J/K/mol; molar heat capacity at constant pressure (132.14 K): 217.1 ± 1.2 J/K/mol; molar heat capacity at constant pressure (135.68 K): 222.2 ± 1.2 J/K/mol; molar heat capacity at constant pressure (139.22 K): 228.2 ± 1.2 J/K/mol; molar heat capacity at constant pressure (140 K): 229.6 ± 1.2 J/K/mol; molar heat capacity at constant pressure (142.74 K): 233.6 ± 1.2 J/K/mol; molar heat capacity at constant pressure (146.27 K): 238.8 ± 1.3 J/K/mol; molar heat capacity at constant pressure (149.79 K): 244.2 ± 1.3 J/K/mol; molar heat capacity at constant pressure (150 K): 245 ± 1.3 J/K/mol; molar heat capacity at constant pressure (153.3 K): 250 ± 1.3 J/K/mol; molar heat capacity at constant pressure (156.82 K): 254.9 ± 1.3 J/K/mol; molar heat capacity at constant pressure (160 K): 260.2 ± 1.4 J/K/mol; molar heat capacity at constant pressure (160.33 K): 260.9 ± 1.4 J/K/mol; molar heat capacity at constant pressure (163.83 K): 266.4 ± 1.4 J/K/mol; molar heat capacity at constant pressure (167.33 K): 271.7 ± 1.4 J/K/mol; molar heat capacity at constant pressure (170 K): 275.3 ± 1.4 J/K/mol; molar heat capacity at constant pressure (170.82 K): 276.8 ± 1.4 J/K/mol; molar heat capacity at constant pressure (174.31 K): 282.2 ± 1.5 J/K/mol; molar heat capacity at constant pressure (177.79 K): 287.2 ± 1.5 J/K/mol; molar heat capacity at constant pressure (180 K): 290.3 ± 1.5 J/K/mol; molar heat capacity at constant pressure (181.26 K): 292.5 ± 1.5 J/K/mol; molar heat capacity at constant pressure (184.73 K): 297.4 ± 1.5 J/K/mol; molar heat capacity at constant pressure (188.19 K): 302.5 ± 1.6 J/K/mol; molar heat capacity at constant pressure (190 K): 305.3 ± 1.6 J/K/mol; molar heat capacity at constant pressure (191.65 K): 307.8 ± 1.6 J/K/mol; molar heat capacity at constant pressure (195.06 K): 312.7 ± 1.6 J/K/mol; molar heat capacity at constant pressure (198.5 K): 318.2 ± 1.6 J/K/mol; molar heat capacity at constant pressure (200 K): 320.4 ± 1.7 J/K/mol; molar heat capacity at constant pressure (201.93 K): 323.6 ± 1.7 J/K/mol; molar heat capacity at constant pressure (205.36 K): 328.5 ± 1.7 J/K/mol; molar heat capacity at constant pressure (208.8 K): 333.1 ± 1.7 J/K/mol; molar heat capacity at constant pressure (210 K): 335.6 ± 1.7 J/K/mol; molar heat capacity at constant pressure (212.23 K): 338.2 ± 1.7 J/K/mol; molar heat capacity at constant pressure (215.66 K): 343.7 ± 1.8 J/K/mol; molar heat capacity at constant pressure (219.09 K): 349.3 ± 1.8 J/K/mol; molar heat capacity at constant pressure (220 K): 350.7 ± 1.8 J/K/mol; molar heat capacity at constant pressure (222.53 K): 355 ± 1.8 J/K/mol; molar heat capacity at constant pressure (225.95 K): 361 ± 1.9 J/K/mol; molar heat capacity at constant pressure (229.38 K): 364.2 ± 1.9 J/K/mol; molar heat capacity at constant pressure (230 K): 365.9 ± 1.9 J/K/mol; molar heat capacity at constant pressure (232.82 K): 370.1 ± 1.9 J/K/mol; molar heat capacity at constant pressure (236.24 K): 375.2 ± 1.9 J/K/mol; molar heat capacity at constant pressure (239.67 K): 380.7 ± 2 J/K/mol; molar heat capacity at constant pressure (240 K): 381.1 ± 2 J/K/mol; molar heat capacity at constant pressure (243.1 K): 385.9 ± 2 J/K/mol; molar heat capacity at constant pressure (246.53 K): 391.1 ± 2 J/K/mol; molar heat capacity at constant pressure (249.92 K): 396.2 ± 2 J/K/mol; molar heat capacity at constant pressure (250 K): 396.3 ± 2 J/K/mol; molar heat capacity at constant pressure (253.35 K): 401.5 ± 2.1 J/K/mol; molar heat capacity at constant pressure (256.77 K): 406.9 ± 2.1 J/K/mol; molar heat capacity at constant pressure (260 K): 411.6 ± 2.1 J/K/mol; molar heat capacity at constant pressure (260.19 K): 412 ± 2.1 J/K/mol; molar heat capacity at constant pressure (263.6 K): 417.5 ± 2.1 J/K/mol; molar heat capacity at constant pressure (267.02 K): 422.9 ± 2.2 J/K/mol; molar heat capacity at constant pressure (270 K): 427.1 ± 2.2 J/K/mol; molar heat capacity at constant pressure (270.43 K): 428.4 ± 2.2 J/K/mol; molar heat capacity at constant pressure (273.84 K): 432.9 ± 2.2 J/K/mol; molar heat capacity at constant pressure (277.25 K): 438.4 ± 2.2 J/K/mol; molar heat capacity at constant pressure (280 K): 442.9 ± 2.3 J/K/mol; molar heat capacity at constant pressure (280.64 K): 443.7 ± 2.3 J/K/mol; molar heat capacity at constant pressure (284.03 K): 449 ± 2.3 J/K/mol; molar heat capacity at constant pressure (287.42 K): 454 ± 2.3 J/K/mol; molar heat capacity at constant pressure (290 K): 458.9 ± 2.3 J/K/mol; molar heat capacity at constant pressure (290.79 K): 460.1 ± 2.3 J/K/mol; molar heat capacity at constant pressure (294.15 K): 465.4 ± 2.4 J/K/mol; molar heat capacity at constant pressure (297.51 K): 471.2 ± 2.4 J/K/mol; molar heat capacity at constant pressure (298.15 K): 472.1 ± 2.4 J/K/mol; molar heat capacity at constant pressure (300 K): 475.1 ± 2.4 J/K/mol; molar heat capacity at constant pressure (300.85 K): 475.9 ± 2.4 J/K/mol; molar heat capacity at constant pressure (304.09 K): 481.9 ± 2.4 J/K/mol; molar heat capacity at constant pressure (307.42 K): 487.8 ± 2.5 J/K/mol; molar heat capacity at constant pressure (310 K): 491.2 ± 2.5 J/K/mol; molar heat capacity at constant pressure (310.76 K): 492.9 ± 2.5 J/K/mol; molar heat capacity at constant pressure (314.09 K): 498.1 ± 2.5 J/K/mol; molar heat capacity at constant pressure (317.42 K): 503 ± 2.5 J/K/mol; molar heat capacity at constant pressure (320 K): 507 ± 2.6 J/K/mol; molar heat capacity at constant pressure (320.76 K): 508 ± 2.6 J/K/mol; molar heat capacity at constant pressure (324.1 K): 513.3 ± 2.6 J/K/mol; molar heat capacity at constant pressure (327.44 K): 518.2 ± 2.6 J/K/mol; molar heat capacity at constant pressure (330 K): 522.5 ± 2.6 J/K/mol; molar heat capacity at constant pressure (330.78 K): 523.9 ± 2.7 J/K/mol; molar heat capacity at constant pressure (334.13 K): 529 ± 2.7 J/K/mol; molar heat capacity at constant pressure (337.48 K): 534 ± 2.7 J/K/mol; molar heat capacity at constant pressure (340 K): 538.4 ± 2.7 J/K/mol; molar heat capacity at constant pressure (340.82 K): 539.6 ± 2.7 J/K/mol; molar heat capacity at constant pressure (344.16 K): 545.9 ± 2.8 J/K/mol; molar heat capacity at constant pressure (347.5 K): 551.7 ± 2.8 J/K/mol; molar heat capacity at constant pressure (350 K): 556.8 ± 2.8 J/K/mol; molar heat capacity at constant pressure (350.09 K): 556.9 ± 2.8 J/K/mol

Reference: the NIST ThermoML archive (doi:10.1016/j.jct.2016.12.015)
